Read-outs that look alike come from different tables or passages of the source.
Columns and labels:
Type in all cases: cell-based, human
p53 [1] = conditions: HCT116 cell (WT); DAC 2 μM, 72 hours; ADR 0.5 μg/ml, 24 hours; FIG. 5C
p53-knockout HCT116 cell = experiment: miR-34b/c expression in p53-knockout HCT116 cell treated with DAC and/or ADR; conditions: HCT116 cell in which p53 gene has been knocked out; DAC 2 μM, 72 hours; ADR 0.5 μg/ml, 24 hours; FIG. 5B
p53 [2] = conditions: p53-knockout HCT116 cell (p53KO); DAC 2 μM, 72 hours; ADR 0.5 μg/ml, 24 hours; FIG. 5C
p21 [3] = conditions: p53-knockout HCT116 cell (p53KO); DAC 2 μM, 72 hours; ADR 0.5 μg/ml, 24 hours; FIG. 5C
p21 [4] = experiment: Western-blotting of p21 expression in HCT116 cell (WT); conditions: DAC 2 μM, 72 hours, ADR 0.5 μg/ml, 24 hours, FIG. 5C
From the text: The expression of β-actin was confirmed as control, and the expression of p21 gene which is known as a representative target of p53 was similarly confirmed.

HCT116 cell [5] = experiment: miR-34b/c expression in HCT116 cell treated with DAC and/or ADR; conditions: DAC 2 μM, 72 hours, ADR 0.5 μg/ml, 24 hours, FIG. 5A
From the text: U6 snRNA was used as an internal control.

CCNE2 (Cyclin E2) gene = experiment: Real-time RT-PCR (TaqMan Gene Expression Assay) of CCNE2 gene in HCT116 cells; conditions: miRNA by electroporation, RNA after 48 hours, vs control miRNA, DAC 2 μM, 72 hours vs mock, FIG. 13B
SFRS2 = experiment: Western-blot analysis of SFRS2 protein in HCT116 cell; conditions: anti-SFRS2 antibody, vs control miRNA / mock, FIG. 13C
From the text: (§1) Furthermore, for foregoing genes, changes in protein level were verified by western-blot analysis using an anti-MET antibody (MET), anti-CDK4 antibody (CDK4), anti-SFRS2 antibody (SFRS2), and anti-actin antibody as control (actin), as shown in FIG. 13C. […] The result above also indicates a more marked decrease in protein level than in RNA level.

[6] = system: CDK4 (cyclin-dependent kinase 4) gene; experiment: Real-time RT-PCR (TaqMan Gene Expression Assay) of CDK4 gene in HCT116 cells; conditions: miRNA by electroporation, RNA after 48 hours, vs control miRNA, DAC 2 μM, 72 hours vs mock, FIG. 13B
[7] = system: MET (hepatocyte growth factor receptor) gene; experiment: Real-time RT-PCR (TaqMan Gene Expression Assay) of MET gene in HCT116 cells; conditions: miRNA by electroporation, RNA after 48 hours, vs control miRNA, DAC 2 μM, 72 hours vs mock, FIG. 13B
CDK4 = experiment: Western-blot analysis of CDK4 protein in HCT116 cell; conditions: anti-CDK4 antibody, vs control miRNA / mock, FIG. 13C
From the text: as §1

[8] = system: 9 colorectal cancer cell lines (CaCO2, Colo320, DLD1, HCT116, HT29, LoVo, RKO, SW48 and SW480); experiment: Expression analysis of miR-34b and miR-34c in colorectal cancer cell lines with DAC treatment; conditions: all 9 colorectal cancer cell lines
From the text: DKO2 cell was used as a control, and U6 snRNA was used as an internal control.
The expression level of miRNA was converted to the ratio of the expression level of each miRNA to that of U6 snRNA (i.e., the expression level of each miRNA/the expression level of U6 snRNA) and analyzed.

[9] = system: 9 colorectal cancer cell lines (CaCO2, Colo320, DLD1, HCT116, HT29, LoVo, RKO, SW48 and SW480); experiment: BTG4 expression by RT-PCR in colorectal cancer cell lines treated with DAC; conditions: DAC 2 μM, 72 hours, FIG. 14A
MET = experiment: Western-blot analysis of MET protein in HCT116 cell; conditions: anti-MET antibody, vs control miRNA / mock, FIG. 13C
From the text: as §1

HCT116 cell [10] = experiment: Microarray analysis of gene expression in HCT116 cell; conditions: miRNA by electroporation, RNA after 48 hours, vs control miRNA, DAC 2 μM, 72 hours vs mock, FIG. 13A
Description: Firstly, in order to search for a gene whose expression is decreased by miR-34b/c expression, control miRNA (control miRNA (Ambion)), miR-34b (miR-34b precursor (Ambion)) and miR-34c (miR-34c precursor (Ambion)) were introduced into a HCT116 cell by electroporation, and after 48 hours RNA was extracted and subjected to microarray analysis.

[11] = system: SFRS2 (splicing factor, arginine/serine-rich 2) gene; experiment: Real-time RT-PCR (TaqMan Gene Expression Assay) of SFRS2 gene in HCT116 cells; conditions: miRNA by electroporation, RNA after 48 hours, vs control miRNA, DAC 2 μM, 72 hours vs mock, FIG. 13B
[12] = system: (v-myb myeloblastosis viral oncogene homolog) gene; conditions: HCT116 cells, DAC 2 μM, 72 hours vs mock, FIG. 13B
HCT116 cell [13] = experiment: Expression analysis of miRNAs (TaqMan miRNA Assay, real-time PCR) in HCT116 cell; conditions: DAC 2 μM, 72 hours
[14] = miRNA by electroporation, RNA after 48 hours, vs control miRNA

With `COc1cccc2c1C(=O)c1c(O)c3c(c(O)c1C2=O)C[C@@](O)(C(=O)CO)C[C@@H]3O[C@H]1C[C@H](N)[C@H](O)[C@H](C)O1` [ADR, adriamycin] the “p53 expression (protein level)” value (p53 [1]) was “induced by ADR treatment”, the miR-34b/c expression (p53-knockout HCT116 cell) was “not at all” and the “p53 expression (protein level)” value (p53 [2]) was “neither p53 nor p21 was changed at all”. The p21 expression (p21 [3]) was “neither p53 nor p21 was changed at all”, the “expression of p21 gene, a p53 target” value (p21 [4]) was “also induced in similar pattern to that of p53” and the miR-34b/c expression (HCT116 cell [5]) was “induction of miR-34b/c expression was observed”.

With `Nc1ncn([C@H]2C[C@H](O)[C@@H](CO)O2)c(=O)n1` [DAC, 5-aza-2′-deoxycytidine] the “mRNA expression level of CCNE2 gene” value (CCNE2 (Cyclin E2) gene) was “decreased”, the “expression level of SFRS2 protein” value (SFRS2) was “decreased” and the “mRNA expression level of CDK4 gene” value [6] was “decreased”. The “mRNA expression level of MET gene” value [7] was “decreased”, the “expression level of CDK4 protein” value (CDK4) was “decreased” and the “expression of miR-34b” value ([8]; FIG. 4A) was “induces the expression”. The “expression of miR-34c” value ([8]; FIG. 4B) was “induces the expression”, the “mRNA expression of BTG4 gene” value [9] was “markedly increased (restored)” and the “expression level of MET protein” value (MET) was “decreased”. For the same molecule, the “gene expression patterns (microarray)” value (HCT116 cell [10]) was “also decreased by DAC treatment”, the “mRNA expression level of SFRS2 gene” value [11] was “decreased” and the “mRNA expression level of MTB gene” value ([12]; […]) was “decreased”. The “expression of miRNAs (expression level of each miRNA/the expression level of U6 snRNA)” value (HCT116 cell [13]; 157 miRNAs compared, FIG. 2) was “induced the expression of 37 miRNAs”, the “expression levels of miRNA34b and miR-34c” value (HCT116 cell [13]; FIG. 3A) was “restores their expression” and the miR-34b/c expression (HCT116 cell [5]) was “induction of miR-34b/c expression was observed”.

In the case of “miR-34b: miR-34b precursor (Ambion); matured type sequence UAGGCAGUGUCAUUAGCUGAUUG (SEQ ID NO: 2) (precursor form, further chemistry not given here)”, the “mRNA expression level of CCNE2 gene” value (CCNE2 (Cyclin E2) gene) is reported as “decreased”, the “mRNA expression level of CDK4 gene” value [6] is reported as “decreased” and the “mRNA expression level of MET gene” value [7] is reported as “decreased”. For the same molecule, the “gene expression patterns (microarray)” value (HCT116 cell [10]) was “a group of genes whose expression was decreased”, the “mRNA expression level of SFRS2 gene” value [11] was “decreased” and the “mRNA expression level of MTB gene” value [12, 14] was “decreased”.

For “miR-34c: miR-34c precursor (Ambion); matured type sequence AGGCAGUGUAGUUAGCUGAUUGC (SEQ ID NO: 4) (precursor form, further chemistry not given here)”, the “mRNA expression level of CCNE2 gene” value (CCNE2 (Cyclin E2) gene) was “decreased”, the “mRNA expression level of CDK4 gene” value [6] was “decreased” and the “mRNA expression level of MET gene” value [7] was “decreased”. For the same molecule, the “gene expression patterns (microarray)” value (HCT116 cell [10]) was “a group of genes whose expression was decreased”, the “mRNA expression level of SFRS2 gene” value [11] was “decreased” and the “mRNA expression level of MTB gene” value [12, 14] was “decreased”.
